Measurements published in patent US11643439B2, “Multi-target compound with anticoagulation and antiplatelet activity, preparation method therefor, and use thereof” (SHAANXI MICOT TECHNOLOGY LIMITED COMPANY, priority 2015, dated 2023).
Marks after values point to notes of the source that are not given here.

Legend:
[1] = tested on: thrombin-induced pulmonary embolism; assay: Thrombin-induced pulmonary embolism in mice; assay type: in vivo, mouse; conditions: thrombin 1500 u/kg; for Mortality rate: within 15 min
Experimental: Mice were randomly divided into 7 groups with 10 mice per group, in which group 1 was physiological saline group, group 2 was model control group, group 3 was positive control group of enoxaparin 0.5 mg/kg, group 4 was positive control group of bivalirudin 8 mg/kg, group 5 was low dose group of polypeptide 2 at 2.5 mg/kg, group 6 was medium dose group of polypeptide 2 at 5.0 mg/kg, and group 7 was high dose group of polypeptide 2 at 10.0 mg/kg. Except that physiological saline group and model control group were subjected to tail intravenous injection of 200 μl physiological saline, the other groups were given according to the doses, respectively. After 2 min, the mice in physiological saline group were administered with 100 μl physiological saline through tail intravenous injection and the other groups were each administered with 100 μl thrombin based on 1500 u/kg (80% to 90% of the lethal dose) through tail intravenous injection. The mice were observed after the administration for their death within 15 min.
(1) Recording mortality rate: the death status of mice with acute pulmonary embolism mice within 15 min was recorded and the survival time was recorded, to calculate the mortality rate;
(2) Determining lung coefficient: immediately after death, the bronchial and adipose tissues were dissected away from the lung tissue, and the lung tissue was washed with distilled water, and weighed for the lung weight after soaking up the water on the surface of the lung with a filter paper. The lung was taken out and weighed, to calculate the lung coefficient. Lung coefficient=Lung weight/Body weight×100%;
The lung was immediately dissected and taken out and weighed to determine the lung coefficient.

whole blood coagulation = assay: ACT in rabbits, single intravenous administration; assay type: in vivo, rabbit
Experimental: (§1) 1. Grouping and administration: 48 Rabbits were randomly divided into 6 groups, 8 rabbits per group. 1) Sham operation group (NS): Intravenous injection of the same volume of physiological saline; 2) positive control bivalirudin group (6 mg/kg); 3) positive control enoxaparin group (200 U/kg); 4) Low dose group of polypeptide 2 (3.0 mg/kg); 5) Medium dose group of polypeptide 2 (6.0 mg/kg); 6) High dose group of polypeptide 2 (12.0 mg/kg). Polypeptide 2 was administered by single intravenous administration. According to the body weight in kilograms of the rabbits, the sample was dissolved in 2 mL of physiological saline for single bolus injection. The sham operation group was administered with the same volume of physiological saline.
3.3 Determination of ACT: At 0 min before administration and at points of administration for 5 min and 15 min, the whole blood was taken, to which kaolin was added, and placed in a water bath at 37° C. to record the whole blood coagulation time.

[2] = tested on: FeCl3-induced common carotid arterial thrombosis; assay: FeCl3-induced common carotid arterial thrombosis in rats; assay type: in vivo, rat
Experimental: 160 Rats were randomly divided into groups, 5 to 10 rats per group.
According to the body weight in kilograms of the rats, the first dose of a drug was dissolved in 2 mL of physiological saline for single bolus injection. The maintaining dose of drug was dissolved in 9 ml of physiological saline, and placed in a double-channel micro-injection pump, which was dripped off within 90 minutes at a dripping speed of 0.1 ml/min. The sham operation group was administered with the same volume of physiological saline.
The rats were fasted with free access to water overnight before the experiment.
After administration at a load dosage maintenance for 30 minutes, a filter paper with a 3 mm diameter and immersed with 35% FeCl3 solution was applied below the common carotid artery, below which a small piece of a plastic film (2.5 cm×2.0 cm) was placed to protect surrounding tissues. The body temperature was detected with a temperature probe in the distal end of the artery, and the time required from the beginning of stimulation to the point when the temperature decreased by 2.5 degrees was examined as the vascular occlusion time.
The time from the point when FeCl3 was placed to the point when the temperature of the artery indicated a decrease of 2.5° C. was the vascular occlusion time, which reflected the state of thrombus formation.

[3] = tested on: FeCl3-induced femoral artery thrombosis; assay: FeCl3-induced femoral artery thrombosis in rabbits, single intravenous administration; assay type: in vivo, rabbit
Experimental: as §1
2.1 Surgery preparation of rabbits: Rabbit were sent to the laboratory for accommodation for one day, and then screened at first. Blood samples were taken from arteries within ears, which were subjected to blood routine analysis and APTT examinations, and the rabbits with a normal blood hemogram and APTT between 16 and 28 seconds were selected for experiments. The rabbits to be tested were fasted with free access to water in the night before the experiment. The rabbits were anesthetized with intravenous injection of 3% sodium pentobarbital solution at 1 ml/kg, fixed in the supine position, and then, the common carotid artery at one side, external jugular vein, femoral artery at one side, femoral vein, and forelimb vein at one side were isolated. The forelimb vein was subjected to intubation for administration; the left femoral vein was subjected to intubation for blood collection to determine the platelet aggregation rate: the femoral artery was used for the establishment of an arterial thrombosis model; the common carotid artery and external jugular vein were used for the establishment of an arterial and venous bypass thrombosis model.
2.3 Arterial thrombosis (AT) model: A small piece of filter paper (1 cm×1.5 cm) absorbed with 50% FeCl3 solution was applied onto the right femoral artery while administration, below which a small piece of a plastic film (2.5 cm×2.0 cm) was placed to protect surrounding tissues. After 10 minutes, the filter paper was removed, and then, the blood vessels and local tissues were rinsed with warm physiological saline, and the covered blood vessels were cut off. The thrombus which attached to the blood vessel walls was peeled off to be weighed on a tin foil for its wet weight, and then kept overnight at room temperature and weighed for its dry weight.
The femoral arteries in the […] and both sides in the rabbits were isolated and stabilized for 10 min before the administration was started. An AT model was established by covering the femoral artery with 50% FeCl3 filter paper while administration, and the filter paper was removed after covering for 15 minutes. An AVST model was established and it was taken out after […]. Observation was continued for 120 min after administration until the experiment was completed.
3.4 Thrombus weight: After the experiment was completed, the segment of the blood vessels in which there had been thrombus formation was cut off, weighed for the wet weight, and then kept overnight at room temperature and weighed for the dry weight. The thrombosis inhibitory rate was calculated with a calculation equation as follows: […]

[4] = single iv 6.0 mg/kg, Administration for 5 min
[5] = single iv 6.0 mg/kg, Administration for 15 min
[6] = single iv 6.0 mg/kg, After administration 5 min
[7] = single iv 6.0 mg/kg, After administration 15 min
[8] = single iv 6.0 mg/kg, Before administration
[9] = iv 0.08 + 0.325 (mg/kg + mg/kg/h)
[10] = iv 0.17 + 0.65 (mg/kg + mg/kg/h)
[11] = iv 0.35 + 1.3 (mg/kg + mg/kg/h)
[12] = iv 0.125 + 0.375 (mg/kg + mg/kg/h)
[13] = iv 0.25 + 0.75 (mg/kg + mg/kg/h)

Bivalirudin: Bivalirudin for Injection, Xi'an Xintong Pharmaceutical Research Co., Ltd.; positive control thrombin inhibitor
Lung coefficient ([1]; tail iv 8.0 mg/kg): 0.99 ± 0.07 g/100 g
Number of platelets ([1]; tail iv 8.0 mg/kg): 411.89 ± 175.52 ×10^9
Mortality rate ([1]; tail iv 8.0 mg/kg, 8 mg/kg): 10**^## %
Mortality rate ([1]; tail iv 8.0 mg/kg, listed as bivalirudin, 8 mg/kg): 10%
ACT (whole blood coagulation; [4]): 443.8 ± 35.3 s
ACT (whole blood coagulation; [5]): 375.0 ± 24.1*^ s
ACT fold of prolongation (whole blood coagulation; [6]): 1.5 ± 0.3
ACT fold of prolongation (whole blood coagulation; [7]): 1.3 ± 0.4
ACT (whole blood coagulation; [8]): 305.6 ± 24.0 s
Common carotid arterial thrombosis Fold of prolongation [2, 9]: 1.79 ± 0.06
Common carotid arterial thrombosis OT [2, 9]: 44.75 ± 1.53 min
Common carotid arterial thrombosis Fold of prolongation [2, 10]: 2.24 ± 0.24
Common carotid arterial thrombosis OT [2, 10]: 56.00 ± 6.03 min
Common carotid arterial thrombosis Fold of prolongation [2, 11]: 2.23 ± 0.33
Common carotid arterial thrombosis OT [2, 11]: 55.63 ± 8.21 min
Common carotid arterial thrombosis Fold of prolongation ([2]; iv 0.5 + 2 (mg/kg + mg/kg/h)): 2.32 ± 0.23
Common carotid arterial thrombosis OT ([2]; iv 0.5 + 2 (mg/kg + mg/kg/h)): 58.00 ± 5.77 min
Thrombus dry weight ([3]; single iv 6.0 mg/kg): 1.5 ± 0.9 mg
Thrombus inhibitory rate ([3]; single iv 6.0 mg/kg): 48.20%

Enoxaparin
Mortality rate ([1]; tail iv 0.5 mg/kg): 10%
Lung coefficient ([1]; tail iv 250 IU/kg): 1.02 ± 0.33 g/100 g
ACT (whole blood coagulation; single iv 200 (U/kg), Administration for 5 min): 915.0 ± 37.7 s
ACT (whole blood coagulation; single iv 200 (U/kg), Administration for 15 min): 610.7 ± 25.7 s
ACT fold of prolongation (whole blood coagulation; single iv 200 (U/kg), After administration 5 min): 3.4 ± 1.1
ACT fold of prolongation (whole blood coagulation; single iv 200 (U/kg), After administration 15 min): 2.2 ± 0.7
ACT (whole blood coagulation; single iv 200 (U/kg), Before administration): 285.0 ± 25.6 s
Common carotid arterial thrombosis Fold of prolongation ([2]; iv 30 + 45 u (U/kg+U/kg/h)): 1.93 ± 0.52
Common carotid arterial thrombosis OT ([2]; iv 30 + 45 u (U/kg+U/kg/h)): 48.17 ± 13.12 min
Common carotid arterial thrombosis Fold of prolongation ([2]; iv 30 + 120 u (U/kg+U/kg/h)): 1.66 ± 0.27
Common carotid arterial thrombosis OT ([2]; iv 30 + 120 u (U/kg+U/kg/h)): 41.4 ± 6.68 min
Common carotid arterial thrombosis Fold of prolongation ([2]; iv 60 + 60 u (U/kg+U/kg/h)): 2.23 ± 0.29
Common carotid arterial thrombosis OT ([2]; iv 60 + 60 u (U/kg+U/kg/h)): 55.75 ± 7.23 min
Common carotid arterial thrombosis Fold of prolongation ([2]; iv 60 + 240 u (U/kg+U/kg/h)): 1.99 ± 0.20
Common carotid arterial thrombosis OT ([2]; iv 60 + 240 u (U/kg+U/kg/h)): 49.75 ± 5.04 min
Common carotid arterial thrombosis Fold of prolongation ([2]; iv 90 + 120 u (U/kg+U/kg/h)): 1.95 ± 0.46
Common carotid arterial thrombosis OT ([2]; iv 90 + 120 u (U/kg+U/kg/h)): 48.83 ± 11.58 min
Thrombus dry weight ([3]; single iv 200 U (U/kg)): 1.5 ± 0.4 mg
Thrombus inhibitory rate ([3]; single iv 200 U (U/kg)): 48.26%

D-Phe Pro Arg Pro Gly Gly Gly Gly Asn Gly Asp Phe Glu Glu Ile Pro Glu Glu Tyr Leu Glu Ala Ala Ala Lys Cys Har Gly Asp Trp Pro Cys [Polypeptide 2]
Lung coefficient ([1]; tail iv 2.5 mg/kg): 0.94 ± 0.16 g/100 g
Number of platelets ([1]; tail iv 2.5 mg/kg): 165.33 ± 20.2 ×10^9
Mortality rate ([1]; tail iv 2.5 mg/kg, 2.5 mg/kg): 60 ^ %
Mortality rate ([1]; tail iv 2.5 mg/kg, listed as polypeptide 2, 2.5 mg/kg): 60%
Lung coefficient ([1]; tail iv 5.0 mg/kg): 1.08 ± 0.27 g/100 g
Number of platelets ([1]; tail iv 5.0 mg/kg): 207.83 ± 33.09 ×10^9
Mortality rate ([1]; tail iv 5.0 mg/kg, 5 mg/kg): 30**^# %
Mortality rate ([1]; tail iv 5.0 mg/kg, listed as polypeptide 2, 5 mg/kg): 30%
Lung coefficient ([1]; tail iv 10.0 mg/kg): 0.83 ± 0.14 g/100 g
Number of platelets ([1]; tail iv 10.0 mg/kg): 529.57 ± 104.28 ×10^9
Mortality rate ([1]; tail iv 10.0 mg/kg, 10 mg/kg): 10**^# %
Mortality rate ([1]; tail iv 10.0 mg/kg, listed as polypeptide 2, 10 mg/kg): 10%
ACT (whole blood coagulation; single iv 3.0 mg/kg, Administration for 5 min): 352.5 ± 40.7^¥ s
ACT (whole blood coagulation; single iv 3.0 mg/kg, Administration for 15 min): 337.5 ± 27.8*^¥ s
ACT fold of prolongation (whole blood coagulation; single iv 3.0 mg/kg, After administration 5 min): 1.0 ± 0.2
ACT fold of prolongation (whole blood coagulation; single iv 3.0 mg/kg, After administration 15 min): 1.0 ± 0.1
ACT (whole blood coagulation; single iv 3.0 mg/kg, Before administration): 357.5 ± 27.7 s
ACT (whole blood coagulation; [4]): 356.3 ± 35.3^¥ s
ACT (whole blood coagulation; [5]): 324.4 ± 24.1*^¥ s
ACT fold of prolongation (whole blood coagulation; [6]): 1.7 ± 0.7
ACT fold of prolongation (whole blood coagulation; [7]): 1.6 ± 0.9
ACT (whole blood coagulation; [8]): 232.5 ± 24.0 s
ACT (whole blood coagulation; single iv 12.0 mg/kg, Administration for 5 min): 505.6 ± 35.3*^¥&@ s
ACT (whole blood coagulation; single iv 12.0 mg/kg, Administration for 15 min): 418.1 ± 24.1*^¥ s
ACT fold of prolongation (whole blood coagulation; single iv 12.0 mg/kg, After administration 5 min): 1.7 ± 0.6
ACT fold of prolongation (whole blood coagulation; single iv 12.0 mg/kg, After administration 15 min): 1.4 ± 0.3
ACT (whole blood coagulation; single iv 12.0 mg/kg, Before administration): 315.0 ± 24.0 s
Common carotid arterial thrombosis OT ([2]; iv 0.041 + 0.125 (mg/kg + mg/kg/h)): 20.20 ± 10.00 min
Common carotid arterial thrombosis Fold of prolongation [2, 12]: 27.99
Common carotid arterial thrombosis OT [2, 12]: 16.23 ± 6.76 min
Common carotid arterial thrombosis Fold of prolongation [2, 13]: 36.85
Common carotid arterial thrombosis OT [2, 13]: 14.23 ± 4.82 min
Common carotid arterial thrombosis OT ([2]; iv 0.5 + 1.25 (mg/kg + mg/kg/h)): 9.25 ± 4.86 min
Common carotid arterial thrombosis Fold of prolongation ([2]; iv 1 + 2.5 (mg/kg + mg/kg/h)): 56.03
Common carotid arterial thrombosis OT ([2]; iv 1 + 2.5 (mg/kg + mg/kg/h)): 9.91 ± 6.20 min
Common carotid arterial thrombosis OT ([2]; iv 1.5 + 3.75 (mg/kg + mg/kg/h)): 7.13 ± 3.46 min
Thrombus dry weight ([3]; single iv 3.0 mg/kg): 1.4 ± 0.5 mg
Thrombus inhibitory rate ([3]; single iv 3.0 mg/kg): 52.99%
Thrombus dry weight ([3]; single iv 6.0 mg/kg): 1.2 ± 0.7 mg
Thrombus inhibitory rate ([3]; single iv 6.0 mg/kg): 56.90%
Thrombus dry weight ([3]; single iv 12.0 mg/kg): 1.1 ± 0.9 mg
Thrombus inhibitory rate ([3]; single iv 12.0 mg/kg): 60.82%
